Source: patent EP0423240B1, “MODULATION OF VIRUS-HOST CELL INTERACTIONS USING CYCLIC OLIGOSACCHARIDES” (THE TRUSTEES OF THE UNIVERSITY OF PENNSYLVANIA, priority 1988, dated 1990)

Assays:
Assay type in all cases: cell-based
HTLV III -B (HIV-1 IIIB) = assay: Fusion inhibition (syncytia) assay, Sup-T1 cells with HTLV-III B infected H9 cells; set-up: key: 4=Full; 0=None; S=Small; M=Medium; L=Large; settings: degree and size of syncytia
Procedure: The fusion inhibition (syncytia) assay was performed according to published procedures (Dalgleish et al., Nature 312:763, (1984) and Sodroski et al., Nature 322: 470, (1986)). Sup-T1 cells are favored target cells for their rapid degree of cell fusion when co-cultured with HIV-1 producing cell lines. Cell culture is performed according to the method of Dalgleish et al. (Nature 312:763, (1984)). Sup-T1 cells are plated in 96 well plates (10⁵ cells/well in RPMI 1640 + 10% FCS) and incubated with or without dilutions of beta-cyclodextrin tetradecasulfate (β-CD-TDS or β-CD-14S) at 37°C. HTLV-III B (HIV-1) or WMJ infected H9 cells are then added 5x10⁴/well and the number of multinucleated giant cells per 16 X field counted with a Zeiss inverted field phase contrast microscope after 18 hours. Syncytia are easily identified and inhibition of syncytia by different dilutions of β-CD-TDS can be compared with to β-CD-TDS free preparations. It will be apparent to those skilled in the art, that the formation of syncytia between cells susceptible of infection by HIV-1 and cells expressing HIV-1 envelope glycoproteins represents the same molecular phenomena involved in infection by HIV-1, but is far less hazardous and may be employed to study the mechanisms of infection and the effects of modulating factors on HIB-1 intracellular infection mechanisms, without fear of exposure to the virus itself.
For screening of different dilutions, 10-fold dilutions of a 150 micromolar solution of β-CD-TDS were prepared and directly added to syncytia assays as described above.
(§1) For the assay of HIV-1 fusion, Supt T1 cells were used as target cells. They fuse rapidly when cocultured with HIV-1 (H9/IIIb) producing cell lines. For the assay of HIV-2 mediated cell fusion, H9 cells were used as target cells. They fuse rapidly when cocultured with HIV-2 (CEMROD-2) producing cell lines. HIV infected cells were plated in 96 well plates (10⁴ cells/well in RPMI 1640 + 10% FCS) and incubated with or without dilution of compounds for 30 minutes at 37°C. Target cells are then added 5 x 10⁵/well and the number of syncytia are qualitatively determined after the incubation periods described in the text.
In a series of preliminary experiments, a syncytia assay induced by HIV-1 fusion of Sup-T1 cells was performed as described in Section 6.1.1, supra.

HIV-1 [1] = assay: HIV-1 induced syncytia assay, IIIb infected H9 cells cocultured with Supt-1 target cells; set-up: key to number of syncytia formed: 4 being multiple syncytia widely distributed; 0 indicating no syncytia observed; s=small; m=medium; L=large syncytia; settings: for number of syncytia formed: HIV-1, number and size of syncytia
Procedure: as §1
In a series of additional experiments, analysis of HIV-1 induced syncytia was performed by coculturing H9 cells infected with the IIIb isolate with uninfected Supt-1 (a human CD4+ T cell line) cells as targets. […]

HIV-2 = HIV-2 induced syncytia assay, ROD-2 infected cells cocultured with H9 target cells; set-up: key to number of syncytia formed: 4 being multiple syncytia widely distributed; 0 indicating no syncytia observed; s=small; m=medium; L=large syncytia; settings: for number of syncytia formed: HIV-2, number and size of syncytia
Procedure: as §1, with “text. […]” for “text.”

HIV-1 [2] = assay: Reverse transcriptase levels of cells already infected with HIV-1; settings: reverse transcriptase activity, virus particle production, virus particle morphology
Procedure: Virus infected cells were pelleted by centrifugation and 50 µl of culture suprenatant was collected from each well for assay. Culture supernatant (25 µl) was plated in 96 well round bottomed plates and 50 µl of transcriptase cocktail was added to each well. Cocktail is 50 mM Tris-HC1, pH 8.0, 20 mM DTT, 0.6 mM MnC1₂, 60 mM NaC1, 0.05% NP-40, 5 µg/ml dt (oligodeoxythymidilic acid), 10 µg/ml poly A (polyriboadenylic acid), 10 µM dTTP, 1 Ci/mm ³²P dTTP. Plates were then incubated for 60 minutes at 37°C. After incubation samples were spotted onto Whatman DEAE-81 paper, washed and analyzed by counting or direct autoradiography.
In order to determine the specific sites of viral pathogenesis interrupted by the cyclodextrin compounds, we assayed the ability of the cyclodextrins treatment to effect reverse transcriptase levels of cells already infected with HIV-1. In contrast to the results observed when virus was added to uninfected cells, (see supra, Section 6.2.1.) no significant inhibition of reverse transcriptase was observed.

HIV-1 [3] = assay: Structural studies: electron microscopy of virus particle production by infected cells
Procedure: Virus infected cells were washed and resuspended in fresh media in the presence or absence of test compounds. After a 48 hour culture period the cultures were pelleted and fixed in 1% glutaraldehyde, 0.1 M Cacodylate-HC1, pH 7.3 followed by OsO₄, and embedded in spur resin for examination of these sections by electron microscopy.
To further address this point, we analyzed virus particle production in the presence of specifically substituted cyclodextrins by electron microscopic examination. Virus infected cells were washed and resuspended in fresh media in the presence or absence of test compounds. After a 48 hour culture period, the cultures were pelleted and fixed in 1% glutaraldehyde, 0.1 M Cacodylate-HC1, pH 7.3 followed by OsO₄ and embedded in spur resin for examination of thin sections.

Substance: beta-cyclodextrin tetradecasulfate [Beta-CD-14S]
- Degree of Syncytia Formation (HTLV III -B (HIV-1 IIIB); 0.15 micromolar β-CD-TDS): 4 L
- Degree of Syncytia Formation (HTLV III -B (HIV-1 IIIB); 1.50 micromolar β-CD-TDS): 4 L
- Degree of Syncytia Formation (HTLV III -B (HIV-1 IIIB); 15.0 micromolar β-CD-TDS): 4 L
- Degree of Syncytia Formation (HTLV III -B (HIV-1 IIIB); 150 micromolar β-CD-TDS): 2 M
- Degree of Syncytia Formation (HTLV III -B (HIV-1 IIIB); 1500 micromolar β-CD-TDS): 0
- number of syncytia formed (HIV-1 [1]; 1.3 mM): 0
- number of syncytia formed (HIV-1 [1]; 2.5 mM): 0
- number of syncytia formed (HIV-1 [1]; .01 mM): 4 L
- number of syncytia formed (HIV-1 [1]; .02 mM): 4 L
- number of syncytia formed (HIV-1 [1]; .04 mM): 3 L
- number of syncytia formed (HIV-1 [1]; .08 mM): 2m
- number of syncytia formed (HIV-1 [1]; .16 mM): 1 s
- number of syncytia formed (HIV-1 [1]; .32 mM): 0
- number of syncytia formed (HIV-1 [1]; .63 mM): 0
- inhibiting syncytia formation of HIV-1 (HIV-1 [1]; result in words): extremely high antisyncytia activity
- number of syncytia formed (HIV-2; 1.3 mM): 0
- number of syncytia formed (HIV-2; 2.5 mM): 0
- number of syncytia formed (HIV-2; .01 mM): 4 L
- number of syncytia formed (HIV-2; .02 mM): 4 L
- number of syncytia formed (HIV-2; .04 mM): 4 L
- number of syncytia formed (HIV-2; .08 mM): 3 L
- number of syncytia formed (HIV-2; .16 mM): 2m
- number of syncytia formed (HIV-2; .32 mM): 1 s
- number of syncytia formed (HIV-2; .63 mM): 0
- inhibition of syncytia formation mediated by ROD-2 (HIV-2; result in words): inhibited syncytia formation
- effects on cells that have already been infected with HIV-1 (HIV-1 [2]): no detectable effects
- morphology of viral particles produced (HIV-1 [3]; 300 µM, 48 hour culture): typical of the lentivirus family
- morphology of the viral particles produced (HIV-1 [3]; infected H9 cells, 1 mM): mature morphology
